The values below come from patent US20240239792A1, “MODULATORS OF BCL-2 OR BCL-2/BCL-XL AND USES THEREOF” (APPICINE THERAPEUTICS (HK) LIMITED, priority 2021, published 2024).

Experiment [1] has as its target T1, BCL-2 (Homo sapiens, UniProt P10415).
T1 construct: purchased Cisbio 63ADK000CB01PEG
Put plainly: HTRF BCL-2/BAK assay (Cisbio). The experiment is classed as binding. The conditions noted are these: recombinant human Tag1-BCL-2 2 nM, Tag2-BAK 10 nM. The procedure: (§1) Then the pre-mixed anti-Tag1-Eu^3+ and anti-tag2-XL665 were added to the plate and further incubated at room temperature for another 2 hours. The signals ([…]) were read on Envision 2104 instrument. The IC50 for each compound was derived from fitting the signal of 665/615 nM to the increasing compound concentration.
(§2) Using the above assays, the following compounds were tested.

Experiment [2] has as its target T2, BCL-XL (Homo sapiens, UniProt Q07817).
T2 construct: purchased Cisbio 63ADK000CB04PEG
Kind of experiment: HTRF BCL-XL/BAK assay (Cisbio). The experiment is classed as binding. The following applies: recombinant human Tag1-BCL-XL 2 nM, Tag2-BAK 5 nM. The procedure:
as §1, §2
For orientation: TR-FRET usually uses a lanthanide donor and a delayed reading to cut background.

Experiment [3] has as its system DOHH2 cells. Kind of experiment: CellTiter-Glo cell proliferation assay, DOHH2 cells. The format is cell-based. The conditions noted are these: Homo sapiens, DOHH-2, 72 hours. In outline:
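DOHH2 cells seeded in DMEM + 10% FBS, exposed to serially diluted compound for 72 h at 37 °C, 5% CO2. Viability read by CellTiter-Glo luminescence; GI50 calculated.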
For orientation: Cellular ATP, detected with luciferase, serves as a proxy for viable cell number.

T1 sequence (P10415 whole entry): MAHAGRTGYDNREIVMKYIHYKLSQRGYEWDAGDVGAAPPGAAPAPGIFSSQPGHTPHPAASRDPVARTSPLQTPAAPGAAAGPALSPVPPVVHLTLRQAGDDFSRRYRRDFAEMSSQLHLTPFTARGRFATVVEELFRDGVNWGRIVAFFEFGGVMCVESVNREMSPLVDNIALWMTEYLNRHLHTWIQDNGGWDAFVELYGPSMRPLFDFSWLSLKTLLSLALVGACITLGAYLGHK
T2 sequence (Q07817 whole entry): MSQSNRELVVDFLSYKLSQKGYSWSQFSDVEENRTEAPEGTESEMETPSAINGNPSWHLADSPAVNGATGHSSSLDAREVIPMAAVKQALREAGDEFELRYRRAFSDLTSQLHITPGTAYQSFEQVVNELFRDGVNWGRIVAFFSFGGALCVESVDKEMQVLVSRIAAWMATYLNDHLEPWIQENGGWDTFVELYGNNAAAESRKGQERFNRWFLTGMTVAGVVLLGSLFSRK

With `O=C(NS(=O)(=O)c1ccc(NCC2CCOCC2)c([N+](=O)[O-])c1)c1ccc(N2CCN(C3CCCCc4ccc(Br)cc43)CC2)cc1Oc1cnc2[nH]ccc2c1` (stereo not drawn) [Compound 21, 2-((1H-pyrrolo[2,3-b]pyridin-5-yl)oxy)-4-(4-(3-bromo-6,7,8,9-tetrahydro-5H-benzo[7]annulen-5-yl)piperazin-1-yl)-N-((3-nitro-4-(((tetrahydro-2H-pyran-4-yl)methyl)amino)phenyl)sulfonyl)benzamide], the IC50 (in general, the concentration that inhibits the measured activity by half) is less than 20 nM in experiment [1] and more than 2000 nM in experiment [2]. The GI50 (commonly the concentration that inhibits growth by half) in experiment [3] lay within 50 to 500 nM.

For `O=C(NS(=O)(=O)c1ccc(NCCN2CCC3(CC2)COC3)c([N+](=O)[O-])c1)c1ccc(N2CCN([C@@H]3CCCCc4c(Br)cc(F)cc43)CC2)cc1Oc1cnc2[nH]ccc2c1` [Compound 80, (R)-2-((1H-pyrrolo[2,3-b]pyridin-5-yl)oxy)-N-((4-((2-(2-oxa-7-azaspiro[3.5]nonan-7-yl)ethyl)amino)-3-nitrophenyl)sulfonyl)-4-(4-(1-bromo-3-fluoro-6,7,8,9-tetrahydro-5H-benzo[7]annulen-5-yl)piperazin-1-yl)benzamide], the 50% inhibitory concentration (IC50) was less than 20 nM in experiment [1] and 20 to 200 nM in experiment [2]. Further, in experiment [3], the 50% growth inhibitory concentration (GI50) lay in the range of 500 to 5000 nM.

For the molecule `O=C(NS(=O)(=O)c1ccc(NCC2CCOCC2)c([N+](=O)[O-])c1)c1ccc(N2CCN([C@@H]3CCCCc4c(Cl)cc(F)cc43)CC2)cc1Oc1cnc2[nH]ccc2c1` [Compound 87, (R)-2-((1H-pyrrolo[2,3-b]pyridin-5-yl)oxy)-4-(4-(1-chloro-3-fluoro-6,7,8,9-tetrahydro-5H-benzo[7]annulen-5-yl)piperazin-1-yl)-N-((3-nitro-4-(((tetrahydro-2H-pyran-4-yl)methyl)amino)phenyl)sulfonyl)benzamide], the IC50 in experiment [1] was less than 20 nM; in experiment [2], 20 to 200 nM. In addition, in experiment [3], the 50% growth inhibitory concentration (GI50) is less than 50 nM.

As to `CN1CCN(CCNc2ccc(S(=O)(=O)NC(=O)c3ccc(N4CCN(C5CCCCc6c(Cl)cccc65)CC4)cc3Oc3cnc4[nH]ccc4c3)cc2[N+](=O)[O-])CC1` (stereo not drawn) [Compound 32, 2-((1H-pyrrolo[2,3-b]pyridin-5-yl)oxy)-4-(4-(1-chloro-6,7,8,9-tetrahydro-5H-benzo[7]annulen-5-yl)piperazin-1-yl)-N-((4-((2-(4-methylpiperazin-1-yl)ethyl)amino)-3-nitrophenyl)sulfonyl)benzamide], the IC50 in experiment [1] and in experiment [2] was less than 20 nM in each case. This molecule also yielded a concentration for 50% growth inhibition (GI50) in experiment [3] of less than 50 nM.

As to `O=C(NS(=O)(=O)c1ccc(NCC2CC3(COC3)C2)c([N+](=O)[O-])c1)c1ccc(N2CCN([C@@H]3CCCCc4c(Cl)cccc43)CC2)cc1Oc1cnc2[nH]ccc2c1` [Compound 72, (R)-2-((1H-pyrrolo[2,3-b]pyridin-5-yl)oxy)-N-((4-(((2-oxaspiro[3.3]heptan-6-yl)methyl)amino)-3-nitrophenyl)sulfonyl)-4-(4-(1-chloro-6,7,8,9-tetrahydro-5H-benzo[7]annulen-5-yl)piperazin-1-yl)benzamide], the IC50 in experiment [1] is less than 20 nM; in experiment [2], 20 to 200 nM. For the same molecule, in experiment [3], the GI50 was less than 50 nM.

Take `CC(C)(C)OC(=O)NCCN1CCC2(CC1)CC(CNc1ccc(S(=O)(=O)NC(=O)c3ccc(N4CCN([C@@H]5CCCCc6c(Cl)cccc65)CC4)cc3Oc3cnc4[nH]ccc4c3)cc1[N+](=O)[O-])C2` [Compound 109, tert-butyl (R)-(2-(2-(((4-(N-(2-((1H-pyrrolo[2,3-b]pyridin-5-yl)oxy)-4-(4-(1-chloro-6,7,8,9-tetrahydro-5H-benzo[7]annulen-5-yl)piperazin-1-yl)benzoyl)sulfamoyl)-2-nitrophenyl)amino)methyl)-7-azaspiro[3.5]nonan-7-yl)ethyl)carbamate]: the IC50 in experiment [1] is less than 20 nM; in experiment [2] it was 20 to 200 nM. The GI50 in experiment [3] was less than 50 nM.

`CC1(C)COCCC1CNc1ccc(S(=O)(=O)NC(=O)c2ccc(N3CCN([C@@H]4CCCCc5c(Cl)cccc54)CC3)cc2Oc2cnc3[nH]ccc3c2)cc1[N+](=O)[O-]` (stereo partly drawn) [Compound 101, 2-((1H-pyrrolo[2,3-b]pyridin-5-yl)oxy)-4-(4-((R)-1-chloro-6,7,8,9-tetrahydro-5H-benzo[7]annulen-5-yl)piperazin-1-yl)-N-((4-(((3,3-dimethyltetrahydro-2H-pyran-4-yl)methyl)amino)-3-nitrophenyl)sulfonyl)benzamide]: the IC50 in experiment [1] is less than 20 nM; in experiment [2] it was 20 to 200 nM. In experiment [3], this molecule registered a GI50 of less than 50 nM.

Turning to `CC(C)c1cccc2c1CCCCC2N1CCN(c2ccc(C(=O)NS(=O)(=O)c3ccc(NCC4CCOCC4)c([N+](=O)[O-])c3)c(Oc3cnc4[nH]ccc4c3)c2)CC1` (stereo not drawn) [Compound 51, 2-((1H-pyrrolo[2,3-b]pyridin-5-yl)oxy)-4-(4-(1-isopropyl-6,7,8,9-tetrahydro-5H-benzo[7]annulen-5-yl)piperazin-1-yl)-N-((3-nitro-4-(((tetrahydro-2H-pyran-4-yl)methyl)amino)phenyl)sulfonyl)benzamide], the IC50 in experiment [1] was less than 20 nM; in experiment [2] it was 200 to 2000 nM. This molecule had a GI50 in experiment [3] of 500 to 5000 nM.

Regarding `Cc1ccc(S(=O)(=O)N2CCCC(N3CCN(c4ccc(C(=O)NS(=O)(=O)c5ccc(NCC6CCOCC6)c([N+](=O)[O-])c5)c(Oc5cnc6[nH]ccc6c5)c4)CC3)c3ccccc32)cc1` (stereo not drawn) [Compound 76, 2-((1H-pyrrolo[2,3-b]pyridin-5-yl)oxy)-N-((3-nitro-4-(((tetrahydro-2H-pyran-4-yl)methyl)amino)phenyl)sulfonyl)-4-(4-(1-tosyl-2,3,4,5-tetrahydro-1H-benzo[b]azepin-5-yl)piperazin-1-yl)benzamide], the IC50 in experiment [1] is less than 20 nM; in experiment [2], 200 to 2000 nM. Further, in experiment [3], the GI50 lay within 500 to 5000 nM.

As for `O=C(NS(=O)(=O)c1ccc(NCC2CC3(CCN(CC4CC4)CC3)C2)c([N+](=O)[O-])c1)c1ccc(N2CCN([C@@H]3CCCCc4c(Cl)cccc43)CC2)cc1Oc1cnc2[nH]ccc2c1` [Compound 129, (R)-2-((1H-pyrrolo[2,3-b]pyridin-5-yl)oxy)-4-(4-(1-chloro-6,7,8,9-tetrahydro-5H-benzo[7]annulen-5-yl)piperazin-1-yl)-N-((4-(((7-(cyclopropylmethyl)-7-azaspiro[3.5]nonan-2-yl)methyl)amino)-3-nitrophenyl)sulfonyl)benzamide], the 50% inhibitory concentration (IC50) in experiment [1] and in experiment [2] was less than 20 nM in each case. This molecule yielded a GI50 in experiment [3] of less than 50 nM.

Regarding `Cc1cccc2c1CCCCC2N1CCN(c2ccc(C(=O)NS(=O)(=O)c3ccc(NCC4CCOCC4)c([N+](=O)[O-])c3)c(Oc3cnc4[nH]ccc4c3)c2)CC1` (stereo not drawn) [Compound 20, 2-((1H-pyrrolo[2,3-b]pyridin-5-yl)oxy)-4-(4-(1-methyl-6,7,8,9-tetrahydro-5H-benzo[7]annulen-5-yl)piperazin-1-yl)-N-((3-nitro-4-(((tetrahydro-2H-pyran-4-yl)methyl)amino)phenyl)sulfonyl)benzamide], the IC50 is less than 20 nM in experiment [1] and 200 to 2000 nM in experiment [2]. Also, the GI50 in experiment [3] is 50 to 500 nM.

In the case of `O=C1CCC(N2CCN(c3ccc(C(=O)NS(=O)(=O)c4ccc(NCC5CCOCC5)c([N+](=O)[O-])c4)c(Oc4cnc5[nH]ccc5c4)c3)CC2)c2ccccc2N1` (stereo not drawn) [Compound 28, 2-((1H-pyrrolo[2,3-b]pyridin-5-yl)oxy)-N-((3-nitro-4-(((tetrahydro-2H-pyran-4-yl)methyl)amino)phenyl)sulfonyl)-4-(4-(2-oxo-2,3,4,5-tetrahydro-1H-benzo[b]azepin-5-yl)piperazin-1-yl)benzamide], the IC50 was 20 to 200 nM in experiment [1] and more than 2000 nM in experiment [2]. In experiment [3], this molecule displayed a GI50 of more than 5000 nM.

In the case of `O=C(NS(=O)(=O)c1ccc(NCC2CCC3(CC2)COC3)c([N+](=O)[O-])c1)c1ccc(N2CCN([C@@H]3CCCCc4c(Br)cccc43)CC2)cc1Oc1cnc2[nH]ccc2c1` [Compound 67, (R)-2-((1H-pyrrolo[2,3-b]pyridin-5-yl)oxy)-N-((4-(((2-oxaspiro[3.5]nonan-7-yl)methyl)amino)-3-nitrophenyl)sulfonyl)-4-(4-(1-bromo-6,7,8,9-tetrahydro-5H-benzo[7]annulen-5-yl)piperazin-1-yl)benzamide], the IC50 was less than 20 nM in experiment [1] and 20 to 200 nM in experiment [2]. Moreover, the GI50 in experiment [3] is less than 50 nM.

For the molecule `CCOC(=O)CN1CCC2(CC1)CC(CNc1ccc(S(=O)(=O)NC(=O)c3ccc(N4CCN([C@@H]5CCCCc6c(Cl)cccc65)CC4)cc3Oc3cnc4[nH]ccc4c3)cc1[N+](=O)[O-])C2` [Compound 122, ethyl (R)-2-(2-(((4-(N-(2-((1H-pyrrolo[2,3-b]pyridin-5-yl)oxy)-4-(4-(1-chloro-6,7,8,9-tetrahydro-5H-benzo[7]annulen-5-yl)piperazin-1-yl)benzoyl)sulfamoyl)-2-nitrophenyl)amino)methyl)-7-azaspiro[3.5]nonan-7-yl)acetate], the results for the IC50 in experiment [1] and in experiment [2] were less than 20 nM and 20 to 200 nM, respectively. The GI50 in experiment [3] was less than 50 nM.

On to `CC(=O)N1CCN(CCNc2ccc(S(=O)(=O)NC(=O)c3ccc(N4CCN([C@@H]5CCCCc6c(Br)cccc65)CC4)cc3Oc3cnc4[nH]ccc4c3)cc2[N+](=O)[O-])CC1` [Compound 65, (R)-2-((1H-pyrrolo[2,3-b]pyridin-5-yl)oxy)-N-((4-((2-(4-acetylpiperazin-1-yl)ethyl)amino)-3-nitrophenyl)sulfonyl)-4-(4-(1-bromo-6,7,8,9-tetrahydro-5H-benzo[7]annulen-5-yl)piperazin-1-yl)benzamide], for which the IC50 in experiment [1] and in experiment [2] was less than 20 nM throughout. In experiment [3], this molecule displayed a GI50 of less than 50 nM.
